Results from ChEMBL document CHEMBL5143645, “Synthesis of harmine-nitric oxide donor derivatives as potential antitumor agents” (Bioorg Med Chem Lett, 2022).
Active and inactive are the calls of the source. The rule behind the calls is not given here.

Key:
[1] = Cytotoxicity against human L02 cells assessed as reduction in cell viability incubated for 72 hrs by CCK-8 assay; type: toxicity, cell-based
HepG2 [2] = experiment: Induction of cell cycle arrest in human HepG2 cells assessed as accumulation of cells at S phase at 15 uM incubated for 24 hrs by PI staining based flow cytometry analysis (reference value: 42.03%); type: functional
HCT-116 = experiment: Antiproliferative activity against human HCT-116 cells assessed as reduction in cell viability incubated for 72 hrs by CCK-8 assay; type: functional, cell-based; details: HCT-116, 72 h
[3] = Apparent permeability across basolateral to apical side in human Caco-2 cells at 2 uM measured after 2 hrs by […] dye based microplate reader analysis; type: ADME, cell-based
HepG2 [4] = experiment: Induction of cell cycle arrest in human HepG2 cells assessed as accumulation of cells at G1 phase at 1.5 uM incubated for 24 hrs by PI staining based flow cytometry analysis (reference value: 42.39%); type: functional
MCF7 = experiment: Antiproliferative activity against human MCF7 cells assessed as reduction in cell viability incubated for 72 hrs by CCK-8 assay; type: functional, cell-based; details: MCF7, 72 h
HepG2 [5] = experiment: Induction of cell cycle arrest in human HepG2 cells assessed as accumulation of cells at G1 phase at 7.5 uM incubated for 24 hrs by PI staining based flow cytometry analysis (reference value: 42.39%); type: functional
HepG2 [6] = experiment: Induction of cell cycle arrest in human HepG2 cells assessed as accumulation of cells at G2/M phase at 7.5 uM incubated for 24 hrs by PI staining based flow cytometry analysis (reference value: 14.58%); type: functional
HepG2 [7] = experiment: Induction of NO release in human HepG2 cells assessed as increase in mean fluorescence intensity at 1 uM incubated for 72 hrs by DAF-FM DA dye based fluorescence microscopic analysis; type: functional, cell-based
[8] = Stability in Sprague-Dawley rat plasma assessed as parent compound remaining at 40 uM measured up to 36 hrs by HPLC analysis; type: ADME, cell-free
HepG2 [9] = experiment: Induction of apoptosis in human HepG2 cells assessed as viable cells at 15 uM incubated for 24 hrs by PI and annexin V-FITC staining based flow cytometry (reference value: 93.97%); type: functional; details: read-out: Activity
HepG2 [10] = experiment: Induction of apoptosis in human HepG2 cells assessed as viable cells at 7.5 uM incubated for 24 hrs by PI and annexin V-FITC staining based flow cytometry (reference value: 93.97%); type: functional; details: read-out: Activity
HepG2 [11] = experiment: Induction of cell cycle arrest in human HepG2 cells assessed as accumulation of cells at S phase at 7.5 uM incubated for 24 hrs by PI staining based flow cytometry analysis (reference value: 42.03%); type: functional
HepG2 [12] = experiment: Induction of apoptosis in human HepG2 cells assessed as necrotic cells at 7.5 uM incubated for 24 hrs by PI and annexin V-FITC staining based flow cytometry (reference value: 0.36%); type: functional
HepG2 [13] = experiment: Induction of NO release in human HepG2 cells assessed as increase in mean fluorescence intensity at 1 to 9 uM incubated for 72 hrs by DAF-FM DA dye based fluorescence microscopic analysis; type: functional, cell-based; details: dose 1-9 µM
HepG2 [14] = experiment: Induction of apoptosis in human HepG2 cells assessed as necrotic cells at 1.5 uM incubated for 24 hrs by PI and annexin V-FITC staining based flow cytometry (reference value: 0.36%); type: functional
HepG2 [15] = experiment: Induction of apoptosis in human HepG2 cells assessed as necrotic cells at 15 uM incubated for 24 hrs by PI and annexin V-FITC staining based flow cytometry (reference value: 0.36%); type: functional
[16] = Acute toxicity in ICR mouse assessed as abnormality in drinking at less than 100 mg/kg, ip measured over 14 days; type: organism-based; details: in vivo, 336 h, time 14 day
[17] = Apparent permeability across apical to basolateral side in human Caco-2 cells at 2 uM measured after 2 hrs by […] dye based microplate reader analysis; type: ADME, cell-based
HepG2 [18] = experiment: Induction of cell cycle arrest in human HepG2 cells assessed as accumulation of cells at G1 phase at 15 uM incubated for 24 hrs by PI staining based flow cytometry analysis (reference value: 42.39%); type: functional
BGC-823 = experiment: Antiproliferative activity against human BGC-823 cells assessed as reduction in cell viability incubated for 72 hrs by CCK-8 assay; type: functional, cell-based; details: BGC-823, 72 h
HepG2 [19] = experiment: Induction of cell cycle arrest in human HepG2 cells assessed as accumulation of cells at G2/M phase at 1.5 uM incubated for 24 hrs by PI staining based flow cytometry analysis (reference value: 14.58%); type: functional
[20] = Acute toxicity in ICR mouse assessed as abnormality in eating at less than 100 mg/kg, ip measured over 14 days; type: organism-based; details: in vivo, 336 h, time 14 day
[21] = Acute toxicity in ip dosed ICR mouse assessed as maximum tolerated dose measured over 14 days; type: organism-based; details: in vivo, time 14 day
[22] = Acute toxicity in ICR mouse assessed as death time at 10 mg/kg, ip measured over 14 days; type: organism-based; details: in vivo, 336 h, time 14 day
HepG2 [23] = experiment: Induction of NO release in human HepG2 cells assessed as increase in mean fluorescence intensity at 1.5 uM incubated for 72 hrs by DAF-FM DA dye based fluorescence microscopic analysis; type: functional, cell-based
HepG2 [24] = experiment: Induction of apoptosis in human HepG2 cells assessed as late apoptotic cells at 1.5 uM incubated for 24 hrs by PI and annexin V-FITC staining based flow cytometry (reference value: 0.36%); type: functional
[25] = Acute toxicity in ICR mouse assessed as change in body weight at less than 100 mg/kg, ip measured over 14 days; type: organism-based; details: in vivo, 336 h, time 14 day
A549 = experiment: Antiproliferative activity against human A549 cells assessed as reduction in cell viability incubated for 72 hrs by CCK-8 assay; type: functional, cell-based; details: A549, 72 h
HepG2 [26] = experiment: Induction of apoptosis in human HepG2 cells assessed as early apoptotic cells at 7.5 uM incubated for 24 hrs by PI and annexin V-FITC staining based flow cytometry (reference value: 2.68%); type: functional
HepG2 [27] = experiment: Induction of apoptosis in human HepG2 cells assessed as viable cells at 1.5 uM incubated for 24 hrs by PI and annexin V-FITC staining based flow cytometry (reference value: 93.97%); type: functional; details: read-out: Activity
HepG2 [28] = experiment: Induction of apoptosis in human HepG2 cells assessed as early apoptotic cells at 15 uM incubated for 24 hrs by PI and annexin V-FITC staining based flow cytometry (reference value: 2.68%); type: functional
HepG2 [29] = experiment: Induction of cell cycle arrest in human HepG2 cells assessed as accumulation of cells at S phase at 1.5 uM incubated for 24 hrs by PI staining based flow cytometry analysis (reference value: 42.03%); type: functional
HepG2 [30] = experiment: Induction of apoptosis in human HepG2 cells assessed as late apoptotic cells at 15 uM incubated for 24 hrs by PI and annexin V-FITC staining based flow cytometry (reference value: 0.36%); type: functional
[31] = Acute toxicity in ICR mouse assessed as change in activity at less than 100 mg/kg, ip measured over 14 days; type: organism-based; details: in vivo, 336 h, time 14 day
HepG2 [32] = experiment: Induction of apoptosis in human HepG2 cells assessed as early apoptotic cells at 1.5 uM incubated for 24 hrs by PI and annexin V-FITC staining based flow cytometry (reference value: 2.68%); type: functional
HepG2 [33] = experiment: Antiproliferative activity against human HepG2 cells assessed as reduction in cell viability incubated for 72 hrs by CCK-8 assay; type: functional, cell-based; details: HepG2, 72 h
HepG2 [34] = experiment: Induction of cell cycle arrest in human HepG2 cells assessed as accumulation of cells at G2/M phase at 15 uM incubated for 24 hrs by PI staining based flow cytometry analysis (reference value: 14.58%); type: functional
HepG2 [35] = experiment: Induction of apoptosis in human HepG2 cells assessed as late apoptotic cells at 7.5 uM incubated for 24 hrs by PI and annexin V-FITC staining based flow cytometry (reference value: 0.36%); type: functional
[36] = Acute toxicity in ICR mouse assessed as death time at 50 mg/kg, ip measured over 14 days; type: organism-based; details: in vivo, 336 h, time 14 day
[37] = Stability of the compound in PBS at pH 7.4 assessed as parent compound remaining at 40 uM measured up to 36 hrs by HPLC analysis; type: physicochemical; details: buffer, pH 7.4, 36 h

Br.Cc1c2c(cc[n+]1Cc1ccccc1)c1ccc(OCC(=O)OCCCCOc3no[n+]([O-])c3S(=O)(=O)c3ccccc3)cc1n2CCCc1ccccc1
IC50 at 72 h [1]: 10 µM
Activity (HepG2 [2]): 36.56%
IC50 (HCT-116): 7.77 µM
Papp B→A at 2 h, 2 µM [3]: < 0.05 ×10⁻⁶ cm/s
Activity (HepG2 [4]): 40.68%
IC50 (MCF7): 2.85 µM
Activity (HepG2 [5]): 33.77%
Activity (HepG2 [6]): 20.03%
Activity (HepG2 [7]): Active
Stability [8]: Stable
viability at 15 µM (HepG2 [9]): 58.3%
viability at 7.5 µM (HepG2 [10]): 77.2%
Activity (HepG2 [11]): 46.2%
Activity (HepG2 [12]): 4.45%
Activity (HepG2 [13]): Active
Activity (HepG2 [14]): 4.44%
Activity (HepG2 [15]): 6.08%
Activity [16]: Non-Toxic
Papp A→B at 2 h, 2 µM [17]: < 0.05 ×10⁻⁶ cm/s
Activity (HepG2 [18]): 33.22%
IC50 (BGC-823): 8.68 µM
Activity (HepG2 [19]): 18.57%
Activity [20]: Non-Toxic
MTD at 336 h [21]: 100 mg/kg
Activity [22]: Non-Toxic
Activity (HepG2 [23]): Active
Activity (HepG2 [24]): 4.28%
Activity [25]: Non-Toxic
IC50 (A549): 3.43 µM
Activity (HepG2 [26]): 12.78%
viability at 1.5 µM (HepG2 [27]): 81.2%
Activity (HepG2 [28]): 20.86%
Activity (HepG2 [29]): 40.75%
Activity (HepG2 [30]): 14.73%
Activity [31]: Non-Toxic
Activity (HepG2 [32]): 10.11%
IC50 (HepG2 [33]): 1.79 µM
Activity (HepG2 [34]): 30.22%
Activity (HepG2 [35]): 5.56%
Activity [36]: Non-Toxic
Stability [37]: Stable

O=S(=O)(c1ccccc1)c1c(OCCCO)no[n+]1[O-]
IC50 at 72 h [1]: 21.7 µM
IC50 (HCT-116): 9.11 µM
IC50 (MCF7): 7.33 µM
IC50 (BGC-823): 11.8 µM
IC50 (A549): 7.93 µM
IC50 (HepG2 [33]): 6.6 µM

O=S(=O)(c1ccccc1)c1c(OCCCCO)no[n+]1[O-]
IC50 at 72 h [1]: 17.9 µM
IC50 (HCT-116): 6.16 µM
IC50 (MCF7): 4.94 µM
IC50 (BGC-823): 3.14 µM
IC50 (A549): 3.49 µM
IC50 (HepG2 [33]): 4.99 µM

COc1ccc2c(c1)[nH]c1c(C)nccc12 [HARMINE]
IC50 at 72 h [1]: 25.1 µM
IC50 (HCT-116): 6.94 µM
IC50 (MCF7): 15.3 µM
IC50 (BGC-823): 15.6 µM
Activity [22]: Non-Toxic
IC50 (A549): 5.23 µM
IC50 (HepG2 [33]): 16.8 µM

COc1cccc2c1C(=O)c1c(O)c3c(c(O)c1C2=O)C[C@@](O)(C(=O)CO)C[C@@H]3O[C@H]1C[C@H](N)[C@H](O)[C@H](C)O1 [DOXORUBICIN]
IC50 (HCT-116): 0.87 µM
IC50 (MCF7): 0.38 µM
IC50 (BGC-823): 0.66 µM
IC50 (A549): 1.05 µM
IC50 (HepG2 [33]): 0.425 µM

Cc1c2c(cc[n+]1Cc1ccccc1)c1ccc(OCC(=O)O)cc1n2CCCc1ccccc1
IC50 at 72 h [1]: 90.3 µM
IC50 (HCT-116): 40 µM
IC50 (MCF7): 26.1 µM
IC50 (BGC-823): 37.4 µM
IC50 (A549): 52.9 µM
IC50 (HepG2 [33]): 113 µM
